Assay results reported in PubChem BioAssay (NCI).
Where “and” joins values, the source holds several entries; their conditions need not be identical. Equal entries are not always repeated.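 Assay format: 96-well plates, 48-hour exposure. GI50 = concentration required for 50% inhibition of growth. TGI denotes the concentration required for complete inhibition of growth.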

What was measured:
Experiment in all cases: inhibition of tumour cell growth, NCI panel, 48 h
DLD-1 colon = tested on: DLD-1 colon
OVCAR-3 ovarian = tested on: OVCAR-3 ovarian
PC-3 prostate = tested on: PC-3 prostate
SN12C renal = tested on: SN12C renal
DMS 114 small cell lung = tested on: DMS 114 small cell lung
HCT-15 colon = tested on: HCT-15 colon
LOX IMVI melanoma = tested on: LOX IMVI melanoma
OVCAR-8 ovarian = tested on: OVCAR-8 ovarian
HOP-62 NSCLC = tested on: HOP-62 NSCLC
U251 CNS = tested on: U251 CNS

Row | Structure (SMILES) | GI50 (DLD-1 colon) | TGI (DLD-1 colon) | TGI (OVCAR-3 ovarian) | TGI (PC-3 prostate) | TGI (SN12C renal) | TGI (DMS 114 small cell lung) | TGI (HCT-15 colon) | TGI (LOX IMVI melanoma) | TGI (OVCAR-8 ovarian) | GI50 (PC-3 prostate) | TGI (HOP-62 NSCLC) | TGI (U251 CNS) | GI50 (HCT-15 colon) | GI50 (HOP-62 NSCLC) | GI50 (LOX IMVI melanoma) | GI50 (OVCAR-3 ovarian) | GI50 (OVCAR-8 ovarian) | GI50 (SN12C renal) | GI50 (U251 CNS) | GI50 (DMS 114 small cell lung)
1 | CC1OC(O[C@@H]2C=C3CC[C@@H]4[C@H](CC[C@]5(C)[C@@H](c6ccc(=O)oc6)CC[C@]45O)[C@@]3(C)CC2)C(O)C(O)C1O (stereo partly drawn) | 0.000621 µM | 0.003 µM | 0.00262 µM and 0.000359 µM | 0.00558 µM | 0.003 µM and 0.0189 µM | – | – | – | – | – | – | – | – | – | – | – | – | – | – | –
2 | COc1cc([C@@H]2c3cc4c(cc3[C@@H](OC3OC5COC(C)OC5C(O)C3O)[C@H]3COC(=O)[C@H]23)OCO4)cc(OC)c1O (stereo partly drawn) | – | – | – | – | – | 24.6 µM and 66.8 µM | 285 µM and 169 µM | > 81.1 µM and 11.6 µM and 42.9 µM | 117 µM and 500 µM and 156 µM | 12.9 µM and 7.68 µM | – | – | – | – | – | – | – | – | – | –
3 | CC(=O)O[C@H]1CSC[C@@H](OC(C)=O)C1[N+](=O)[O-] (stereo partly drawn) | – | – | 55.3 µM | – | > 100 µM | > 100 µM | 88.9 µM | – | > 100 µM | – | > 100 µM | > 100 µM | – | – | – | – | – | – | – | –
4 | O=C1c2ccccc2C(=O)c2c1ccc1c3ccccc3n(-c3ccccc3)c21 | – | 41.6 µM | 55 µM | > 100 µM | 32.3 µM | – | 32.6 µM | 30.4 µM | 44.8 µM | – | > 100 µM | > 100 µM | – | – | – | – | – | – | – | –
5 | CCN(CC)c1ccc(N=Nc2ccc(-c3nc4cccnc4s3)cc2)cc1 | – | > 100 µM | > 100 µM | – | > 100 µM | > 100 µM | – | – | > 100 µM | – | > 100 µM | > 100 µM | – | – | – | – | – | – | – | –
6 | OC[C@H]1C[C@](O)(c2ccccc2Cl)[C@@H](c2ccccc2Cl)O1 | – | – | 47.5 µM | 74.6 µM | 41.2 µM | – | > 100 µM | 34.3 µM | 86.6 µM | 24.2 µM | > 100 µM | > 100 µM | 28.4 µM | 31.7 µM | 16900 nM | 19.5 µM | 26.4 µM | 20.8 µM | 28500 nM | –
7 | ClC/C=C/CSc1ncnc2nc[nH]c12 | – | – | > 100 µM | > 100 µM | > 100 µM | – | > 100 µM | > 100 µM | > 100 µM | > 100 µM | > 100 µM | > 100 µM | > 100 µM | > 100 µM | > 100000 nM | > 100 µM | > 100 µM | > 100 µM | > 100000 nM | –
8 | C=C1C(C)C2C(Cc3ccccc3)NC(=O)C23C(OC(C)=O)C=CC(C)(O)C(=O)C(C)C/C=C/C3C1O (stereo not drawn) | – | – | > 500 µM | – | 499 µM | 65.6 µM and > 500 µM | > 500 µM | – | > 500 µM | – | – | 5.47 µM and 53.2 µM | > 500 µM | 0.0431 µM and 0.106 µM | – | – | > 471 µM | 14.9 µM | – | 11.1 µM
9 | CNC(=O)c1sc(-n2cnc3cc(OC)c(OC)cc32)cc1OCc1ccccc1C(F)(F)F | – | – | > 25 µM | > 25 µM | > 25 µM | – | > 25 µM | > 25 µM | > 25 µM | > 25 µM | > 25 µM | > 25 µM | > 25 µM | > 25 µM | > 25000 nM | > 25 µM | > 19.2 µM | > 25 µM | > 25000 nM | –
10 | COc1cc(F)c(F)c(Nc2ccc(I)cc2F)c1NS(=O)(=O)C1(CC(O)CO)CC1 (stereo not drawn) | – | – | 36.4 µM | > 57.5 µM | 38.6 µM | – | 47.4 µM | 17.6 µM | 61 µM | 15.1 µM | 32.4 µM | 39.9 µM | 14.6 µM | 14 µM | 4920 nM | 14.6 µM | 18.7 µM | 12.5 µM | 15200 nM | –
11 | CCc1ccc([OH2+])c(C(=O)[O-])c1.CCc1ccc([OH2+])c(C(=O)[O-])c1.CCc1ccc([OH2+])c(C(=O)[O-])c1.CCc1ccc([OH2+])c(C(=O)[O-])c1.[Cu+2].[Cu+2] | – | – | > 100 µM | > 100 µM | > 100 µM | – | > 100 µM | > 100 µM | > 100 µM | > 70.5 µM | > 100 µM | > 100 µM | > 88.2 µM | > 100 µM | > 100000 nM | 36.5 µM | 5.59 µM | 98.3 µM | > 59900 nM | –
12 | CSc1ccc(-c2cn3ccsc3n2)cc1 | – | – | > 100 µM | > 100 µM | > 100 µM | – | > 100 µM | > 100 µM | > 100 µM | 18.9 µM | > 100 µM | > 100 µM | 9.76 µM | 34.6 µM | 8600 nM | > 28.6 µM | 15.8 µM | 32.2 µM | 7650 nM | –
13 | N#Cc1cnn(C(=O)c2nn(-c3ccc(Cl)cc3)cc2O)c1N | – | – | 8.44 µM | 7.28 µM | 17.5 µM | – | 13.1 µM | 12 µM | > 44.4 µM | 0.322 µM | 17.4 µM | 20.6 µM | 0.338 µM | 0.392 µM | 434 nM | 0.545 µM | 0.474 µM | 0.342 µM | 284 nM | –
14 | O=C1OC(c2ccccc2)=N/C1=C\c1ccccc1 | – | – | > 100 µM | > 100 µM | > 100 µM | – | > 100 µM | 51.8 µM and 31.6 µM | > 100 µM and 73.1 µM | – | > 100 µM and 73.5 µM | > 100 µM | > 100 µM and 49 µM | – | – | – | – | – | – | –
15 | COc1ccc(/C(=C(\c2ccccc2)[N+](=O)[O-])c2ccc(OCCN3CCCC3)cc2)cc1 | – | – | 16.2 µM | 16.6 µM | 22.4 µM | – | 4.19 µM | 6.73 µM | 31.7 µM | 4.53 µM | 4.94 µM | 12.6 µM | 1.49 µM | 1.89 µM | 2050 nM | 3.93 µM | 11.8 µM | 7.79 µM | 2840 nM | –
16 | COc1ccccc1NC(=O)c1sc2ncn(CCOc3ccccc3)c(=O)c2c1C | – | – | > 50 µM | > 50 µM | > 50 µM | – | 15.1 µM | > 50 µM | > 50 µM | > 50 µM | > 50 µM | > 50 µM | 0.431 µM | 15.6 µM | 1520 nM | 2.91 µM | > 50 µM | 17.2 µM | 3500 nM | –
17 | CN1CCN(Cc2ccc(NC(=O)c3cncc(C#Cc4c(N)ncc5ccccc45)c3)cc2C(F)(F)F)CC1 | – | – | 1.53 µM | 1.73 µM | 1.31 µM | – | 0.998 µM | 0.979 µM | 1.91 µM | 0.687 µM | 1.66 µM | 1.41 µM | 0.293 µM | 0.733 µM | 348 nM | 0.817 µM | 0.839 µM | 0.627 µM | 686 nM | –
18 | COc1cccc(/C=C\C(=O)c2ccccc2)c1 | – | – | 13.4 µM | 26.2 µM | 25.5 µM | – | 10.1 µM | 7.38 µM | 24.7 µM | 3.73 µM | 42.1 µM | 14.1 µM | 2.4 µM | 20.2 µM | 2420 nM | 3.04 µM | 7.83 µM | 8.97 µM | 2770 nM | –
19 | CC(=O)[CH-]C(=O)c1ccccc1.CC(=O)[CH-]C(=O)c1ccccc1.Cl.[O-]CCc1ccccn1.[O-]CCc1ccccn1.[Ti+4] | 30.4 µM | > 100 µM | > 100 µM | – | > 100 µM | – | > 100 µM | > 100 µM | > 100 µM | – | 47.7 µM | – | 46.2 µM | 23.6 µM | 25600 nM | 32.3 µM | 30.1 µM | 36.1 µM | – | –
20 | O=C(/C=C/c1ccco1)Nc1ncc(Cc2cc(Cl)ccc2Cl)s1 | – | – | 0.122 µM | > 100 µM | > 100 µM | – | > 100 µM | > 100 µM | > 100 µM | 0.0421 µM | > 76.5 µM | > 100 µM | 0.0463 µM | 0.0645 µM | 76.2 nM | 0.0294 µM | 0.12 µM | 0.117 µM | 42.6 nM | –
21 | CC1CCc2c(C(=O)Nc3ncc(Cc4cccc([N+](=O)[O-])c4)s3)csc2C1 (stereo not drawn) | – | – | 2.25 µM | > 100 µM | > 100 µM | – | > 100 µM | > 100 µM | > 100 µM | 0.618 µM | > 100 µM | > 100 µM | 0.389 µM | 0.795 µM | 480 nM | 0.391 µM | 1.42 µM | 1.49 µM | 523 nM | –
22 | CCCCCCCCCC(=O)Oc1ccc(/C(=C(/C)c2ccccc2)c2ccc(OCCN3CCCC3)cc2)cc1 | – | – | 16.1 µM | 15.7 µM | 17.9 µM | – | 13.1 µM | 14.8 µM | 20.8 µM | 8.28 µM | 17.3 µM | 15.4 µM | 6.69 µM | 8.75 µM | 8020 nM | 8.18 µM | 9.78 µM | 9.15 µM | 8010 nM | –
23 | COc1cc(OC)c(/C=C/S(=O)(=O)Cc2ccc(OC)c(N)n2)c(OC)c1 | – | – | < 0.01 µM | > 100 µM | > 100 µM | – | > 100 µM | > 100 µM | > 100 µM | < 0.01 µM | > 100 µM | > 100 µM | < 0.01 µM | < 0.01 µM | < 10 nM | < 0.01 µM | < 0.018 µM | < 0.0171 µM | < 10 nM | –
24 | O=C1c2ccc3c4c(ccc(c24)C(=O)N1CCCCO)C(=O)N(CCCCO)C3=O | – | – | 2.31 µM | 30.1 µM | 6.63 µM | – | 10.5 µM | 3.58 µM | 8.45 µM | 3.1 µM | 12.7 µM | 6.57 µM | 1.55 µM | 2.53 µM | 1350 nM | 0.408 µM | 1.33 µM | 1.88 µM | 2140 nM | –
